One test relates to Escherichia coli. Put plainly: E. coli count (Petrifilm) in raw milk under CO2 pressure (Example 1). Type of test: cell-based. As to conditions: 4° C. Here is the method: Milk samples were mixed and 5 ml of milk added into the treatment and control vessels. The treatment vessel was connected to the apparatus and the control vessel closed off. Both vessels were placed in the water bath. When the desired temperatures were attained in both treatment and control vessels, CO2 was introduced through the bottom of the treatment vessel until the set pressure was reached. The CO2 pressure was maintained throughout the test period. When the desired time was reached, the CO2 inlet was turned off, the pressure release valve on the outlet line opened, and the pressure released in under one minute. After depressurization, the treatment and control vessels were removed from the water bath and their external surfaces were wiped dry, sanitized with 95% ethanol, detached from the apparatus and transferred into sterile containers for dilution and plating.
The progression of these counts (total, Coliform/E. coli and thermoduric bacteria) in the treatment and control samples was tracked by conducting checks on the total aerobic counts (SPC) on treatment days 4 and 6. Based on the levels of total counts on days 4 and 6, analyses of total coli forms/E. coli and thermoduric bacteria after day 6 were conducted either in 1-day or 2-day intervals. The control sample final count was measured on days 4 and 6.
Initial total, coliform, and thermoduric counts were each determined for control and treated samples. Thermoduric organisms were enumerated by the laboratory pasteurization count (LPC) method described in the Standard Methods for the Examination of Dairy Products (Houghtby et al., 1992). The 3M Petri film count plate (3M Microbiology Products, St. Paul, Minn.) was used to enumerate total coli forms and Escherichia coli in the raw, treated and control milk samples.

Test [1] concerns Lactobacillus spp. Put plainly: Total Lactobacillus spp. on acidified MRS agar, raw milk under CO2 pressure (Example 1). It counts as cell-based. As to conditions: current study. Here is the method: (§1) Raw milk from the T&R Center was monitored for changes in aerobic bacteria, gram-negative bacteria and total Lactobacillus spp. as follows: CO2 pressures of 0 (control), 68, 172, 344, 516 and 689 kPa, at 6.1° C. for 4-days. SPC, gram-negative bacteria and total Lactobacillus spp. were enumerated before (day 0) and after (day 4) treatment. Gram negative bacteria were enumerated on MacConkey Agar (Difco Manual, Becton Dickinson & Co., Sparks, Md.), a selective and differential media which can be used to discriminate between lactose fermenting and non-lactose fermenting gram-negative bacteria. Use of this media allows a one-step method of obtaining estimates of both coliform and non-coliform gram negative bacteria. Coliform bacteria may include species of Escherichia, Klebsiella and Enterobacter, potential pathogens and/or spoilage organisms. Non-coliform gram negative bacteria may include spoilage organisms such as pseudomonads or potential pathogens such as Salmonella spp. or Shigella spp. […]
(§2) For all microbiological assays, milk sample aliquots of 1 ml were used in dilution series. […] Representative and distinctive suspect colonies were gram stained, and confirmed gram positive bacilli colonies were counted as an estimate of total Lactobacillus spp.

Test [2] has as its system gram-negative lactose fermenting bacteria. Put plainly: Gram-negative lactose fermenting bacteria on MacConkey agar, raw milk under CO2 pressure (Example 1). It counts as cell-based. The note with it: 6.1° C., 4 days. On the procedure:
as §1, §2

Test [3] has as its system SPC (total microbial growth) in whole raw milk. Nature of the test: SPC of bulk raw milk in CO2 pressurized tank container (Example 2). Type of test: cell-based. The note with it: bottom of the tank, entire 17 day study. The source says: The apparatus pressurizing and holding raw milk samples consisted of a 5300 U.S. gallon (20,000 liter) food grade, insulated, pressure vessel shipping container of the model HO4 type utilized by Agmark Foods, Inc. Compressed and filtered CO2 from high pressure tank was used, including a Praxair inline 3A sparger. The Agmark shipping container was sanitized on Aug. 4, 2004. The following day, the tank was pre-chilled with a spray of CO2 and filled with 3,291 U.S. gallons of fresh raw milk obtained from the Cornell University Teaching and Research Center Bovine Heard (T&R Center; Dryden, N.Y.) on Aug. 5, 2004. The raw milk from the T&R Center was received less than 12 hours after milking and was introduced from a holding tank into the pressure vessel at a temperature of approximately 1 to 2° C. Prior to filling the pressure vessel, the vessel was sealed and pressurized with carbon dioxide to a pressure of 25 psi (172.5 kPa). Milk was pumped into the tank through the discharge valve at the rear of the tank and CO2 was injected into the flow of the milk with an inline Praxair 3A sparger at a rate sufficient to infuse approximately 2000 parts per million at a gas flow rate of approximately 16 cubic feet per minute. The raw milk was pumped into the vessel at a flow rate of 70 to 80 gallons per minute with flowing CO2 under a 40 psi line pressure and 25 psi tank pressure. […]

For test [4], the system named is gram-negative non-lactose fermenting bacteria. Put plainly: Gram-negative non-lactose fermenting bacteria on MacConkey agar, raw milk under CO2 pressure (Example 1). Type of test: cell-based. The note with it: 6.1° C., 4 days. On the procedure:
as §1, §2

The test system of test [5] is Lactobacillus spp. As to conditions: 30 and 45 ppm CO2 (Espie and Madden, 1997); cited from earlier work.

Molecules are shown by their SMILES.

As for `O=C=O` [CO2, carbon dioxide], the “E.coli counts, Treated, 4 Days” value in the test on Escherichia coli (689 kPa CO2 pressure, 4 days, raw milk) is listed as 1.7 * 10^1k cfu/ml. For the same compound, the “E.coli counts, Treated, 6 Days” value in the test on Escherichia coli (689 kPa CO2 pressure, 6 days, raw milk) is listed as 1.7 * 10^1k cfu/ml. In addition, the “E.coli counts, Treated, 8 Days” value with Escherichia coli (689 kPa CO2 pressure, 8 days, raw milk) was 1.7 * 10^1k cfu/ml. In addition, the “E.coli counts, Treated, 9 Days” value in the test on Escherichia coli (689 kPa CO2 pressure, 9 days, raw milk) is 1.5 * 10^1k cfu/ml. Moreover, the “E. coli counts in treated milk” value in the test with Escherichia coli (689 kPa, up to 9 days) is listed as “Neither E. coli nor total thermoduric bacteria counts increased”. For the same compound, the “populations of Lactobacillus after CO2 pressure treatment” value in the test on Lactobacillus spp. [1] was “decreased”. Moreover, the “levels of gram-negative fermenters compared to untreated controls” value in test [2] (68 to 689 kPa) is given as “reduced at all pressures”. The “decrease of gram-negative lactose fermenting bacteria compared to initial counts” value in test [2] (689 kPa) stood at 0.80 log10 cfu/ml. For the same compound, in test [3], the “bacterial levels versus quality limit of 5 log cfu/ml SPC” value is “did not reach the limit”. The “levels of gram-negative non-fermenters compared to untreated controls” value in test [4] (68 to 689 kPa) is recorded as “reduced at all pressures”. Also, the “decrease of gram-negative non-lactose fermenting bacteria compared to initial counts” value in test [4] (689 kPa) is reported as 0.64 log10 cfu/ml. Moreover, the “effect on the growth of Lactobacillus spp.” value in the test with Lactobacillus spp. [5] is recorded as “no effect”.

The values are drawn from patent publication US8563067B2, “Extended shelf life and bulk transport of perishable organic liquids with low pressure carbon dioxide” (Cornell Research Foundation, Inc., priority 2004, dated 2013).
